# {Cy5.5} = Cy5.5 cyanine dye label
# Legend:
# [1] = Baseline fluorescence of hairpin DNA probes; type: physicochemical; settings: correlated with length of protruded DNA end; FIG. 1B
# Text: It was impossible to determine if the background fluorescence was attributed to the probe or it originated from a partial degradation of the probe. Consequently, the NIRF probes were designed as hairpins to allow testing the integrity of DNA by its denaturing followed by reannealing. The use of hairpin also allows easy measurement of the maximum fluorescence of the probe. The distance between two fluorophores varied by changing of protruding DNA strand length from +0 (AB259.1 probe) to +5 (AB259.3 probe) or to +10 (AB259.5 probe) as shown in FIG. 1A. The baseline fluorescence of probe AB259.1 was 30% higher than negative control without a probe (FIG. 1B).
# (§1) All cell-free experiments were performed using the Bio-Tek Synergy 5 fluorescent plate reader. Before experiments, optimal excitation and emission wavelengths were determined. For this, excitation and emission were scanned in the ranges of 600-680 nm and 690-705 nm, respectively. The optimal excitation/emission was determined to be 665/703 nm. All kinetic and endpoint measurements were done in a total volume of 100 μl at 37° C. Unless stated otherwise, DNA substrate was used in final concentration 0.5 μM reconstituted in endonuclease activity assay (EAA) buffer (2 mM CaCl2, 5 mM MgCl2, 10 mM Tris-HCl, pH 7.4) in a 96-well plate. After measurement of starting fluorescence, DNase I or tested material (diluted 1:20 urine or 1:100 serum) were added to the reconstituted probe, rapidly mixed and fluorescence was monitored for up to 60 min with 30-sec intervals. In some instances, EDTA (final concentration 200 μM) or NaOH (50 mM) was added to terminate the reaction. For the experiments that involved assessment of fluorescence after DNA denaturing, probes were tested in Cepheid real-time PCR system using Cy5 setting (Sunnyvale, Calif.).
# [2] = Heat denaturing and reannealing of hairpin probes (probe integrity); type: physicochemical; settings: ROX internal reference; above background; FIG. 1C
# Description: To ensure the integrity of the DNA probes, it was tested whether a heat denaturing of the hairpins would cause an increase in fluorescence, and if a reannealing would reverse it. To compensate for thermal change of fluorophore's emission, the ROX fluorophore was added to tested probes as an internal reference.
# as §1
# NRK-52E cells = assay: Intracellular endonuclease activity in cultured cells, time-lapse microscopy; type: cell-based, rat; settings: AB259.3/Lipofectamine LTX complexes
# Description: To test whether AB259.3 probe may be delivered intracellularly and thus be used as an indicator of endonuclease activity in live cells, NRK-52E cells were transfected with of AB259.3/Lipofectamine LTX complexes and imaged by time-lapse epifluorescence microscopy every 10 min for 8 hours. A 2.5-3 times increased fluorescence reached plateau in 1 hour after transfection and the cells retained fluorescent dye for the duration of experiment (FIG. 4A). To induce activity of endonucleases, cells were treated with cisplatin or camptothecin and imaged by time-lapse microscopy for Cy5.5 fluorescence. […] Therefore, it was concluded that AB259.3 can be delivered and used for intracellular monitoring of endonuclease activity in live cells. To further determine whether AB259.3 probe can be used in other cell lines, several of them were tested (FIG. 4D). […] It was then determined whether the probe without the loop would be consumed by NRK-52E cells equally to the original loop probe. […] Finally, PCR was used to determine whether the DNA part (as opposed to the fluorophores) of the probes enters the cells in vivo and in vitro.
# Rat proximal tubular epithelial NRK-52E cells were used to test the ability of AB259.3 probe to measure endonuclease activity. The cells were seeded in a 24-well plate at 50,000 cells per well in complete DMEM medium supplemented with 10% fetal bovine serum. Cells were transfected with the AB259.3 probe using Lipofectamin LTX and then subjected to spinning disk confocal fluorescent time-lapse microscopy in 628/40-692/40 spectrum every 10 min for 8 hours using Olympus IX-81 image system equipped with Hamamatsu ORCA-ER camera and LiveCell microenvironmental control chamber (Pathology Devices Inc., Westminster, Md.). In separate experiment, cells were treated with either 25 μM cisplatin or 50 μM camptothecin for 8 hours, followed by 1-hour transfection with AB259.3 probe and 8-hour time-lapse imaging session with 10-min intervals using the same microscopy system.
# [3] = tested on: wild-type (WT) mouse kidney cryosections; assay: Endonuclease activity ex vivo in kidney cryosections; settings: 5 μM probe, EAA buffer, 37° C.
# Description: Next it was examined whether AB259.3 probe can be used for measurement of endonuclease activity in tissue sections. Kidneys were used because they are known for high activity of DNase I (Ca/Mg-dependent endonuclease). Freshly prepared 10 μm thick cryosections of wild-type (WT) mouse kidney were exposed with 5 μM AB259.3 probe in presence of EAA buffer at 37° C. and time-lapse imaged for 10 min with 1-min intervals.
# Specimens of kidney, liver, spleen and testis tissues were removed from euthanized mice, immersed in OCT medium, rapidly frozen by Fisher Freeze-it and kept on dry ice for no longer than 1 hour prior slicing. Tissue cryosections (8-μm thick) were prepared using the Microm HM 505E cryotome, placed to the Fisher Plus slides and immediately exposed with 0.5 μM AB259.3 probe diluted in EAA buffer. In control samples, applied probe contained EAA buffer supplemented with 200 μM EDTA. Images were taken in 628/40-692/40 spectrum every 30 sec for 10 min in 10 random XY coordinates. Three sections from each specimen were analyzed separately. Maximal velocity of increasing fluorescence was averaged for each section.
# WT and DNase I KO mice = assay: Cy5.5 fluorescence in organs isolated after intravenous probe injection (Xenogen-IVIS); type: in vivo, mouse; settings: 50 nmol/kg intravenous, 1 or 3 hours after injection; FIG. 6
# Description: In the next set of experiments, it was tested whether AB259.3 probe is suitable for in vivo measurement of DNase I and endonuclease activity in internal organs. For this, WT and DNase I KO mice were subjected to intravenous administration of AB259.3 probe (50 nmol/kg). The organs including brain, heart, lung, muscle, bone (femur), liver, pancreas, salivary gland, jejunum, spleen, kidney and testicles were collected in 1 or 3 hours after injection and measured for Cy5.5 fluorescence using a Xenogen-IVIS instrument. […] Kidneys, pancreas, salivary glands and lungs were among those that had the most prominent relative increase of Cy5.5 fluorescence in WT mice with markedly lower level of fluorescence in DNase I KO mice. Despite highest absolute fluorescence values in gut and liver, relative gain of fluorescence in these organs was quite modest due to the high background autofluorescence.
# Kidney ischemia-reperfusion was performed as previously reported. […] The liposomes were prepared as described previously.
# WT mice = assay: Histological distribution of probe in kidneys; type: in vivo, mouse; settings: 50 nmol/kg intravenous
# Description: It was assessed whether AB259.3 probe is specifically accumulated in any renal compartments or its accumulation in the kidney is simply due to the excretion with urine. For this, WT mice were administered intravenously with 50 nmol/kg of AB259.3 probe and kidneys were collected in 1 or 3 hours, frozen, cryosectioned and examined under fluorescent microscope in 628/40-692/40 spectrum. […] Morphologically, fluorescence was detected mainly in membranous parts of the epithelial cells, such as basolateral and, to lesser extent, at apical surface.
substance,measurement,setting,value
"[Cy5.5]AACACTCCGATGAGTGTAGAATGT[Cy5.5] (DNA, 5' {Cy5.5}, 3' {Cy5.5}, backbone not given here) [AB259.3, hairpin DNA probe with Cy5.5 at both ends, protruding strand +5]",baseline fluorescence (in words),[1],much higher levels of the baseline fluorescence
same,gain of fluorescence on heat denaturing,[2],2.8 times
same,time to plateau of fluorescence after transfection,NRK-52E cells,1 h
same,increase of fluorescence in cells after transfection,NRK-52E cells; FIG. 4A,2.5-3 times
same,time to plateau of fluorescence,[3],2 to 3 min
same,increase of Cy5.5 fluorescence compared to starting point,"[3]; 10 min, FIGS. 5A and 5B",2.5 times
same,organ fluorescence after injection (in words),WT and DNase I KO mice,kidneys appeared to be the most visibly distinctive organ
same,renal localisation of activated probe at 1 hour,WT mice; 1 hour,"cortical compartment, and mainly proximal tubules already contained significant amount of activated AB259.3 probe"
same,renal localisation of activated probe at 3 hours,"WT mice; 3 hours, FIG. 8",started to appear in medullar compartment and distal tubules

# Source: patent US9650674B2, “Nucleic acid probes and methods of using the same” (Board of Trustees University of Arkansas, priority 2012, dated 2017)
